Here are results for two molecules from patent US20170218389A1, “METHODS AND COMPOSITIONS FOR STOMATA REGULATION, PLANT IMMUNITY, AND DROUGHT TOLERANCE” (priority 2016, published 2017).

For assay [1], the system named is AtNHR1A. The assay can be described thus: qRT-PCR of AtNHR1A expression in treated wild-type Col-0 plants. It is filed as in vivo, Arabidopsis. Particulars: Col-0, syringe-infiltrated ABA 10 μM, 6 hpt, relative to 0 hr. As for the experimental part: (§1) Total RNA was purified from Arabidopsis leaves infiltrated with water (mock control), nonhost pathogen P. syringae pv. tabaci (Psta), or host pathogen P. syringae pv. maculicola (Psm). Total RNA was extracted using TRIzol (Invitrogen, NT) and 2 treated or inoculated leaves were pooled to represent one biological replicate. Total RNA was treated with DNase I (Invitrogen, NY), and 1 μg RNA was used to generate cDNA using Superscript III reverse transcriptase (Invitrogen, NY) and oligo d(T)15-20 primers. The cDNA (1:20) was then used for qRT-PCR using Power SYBR Green PCR master mix (Applied Biosystems, Foster City, Calif., USA) with an ABI Prism 7900 HT sequence detection system (Applied Biosystems). Primers specific for AtUBQ5 were used to normalize small differences in template amounts. Average Cycle Threshold (CT) values calculated using Sequence Detection Systems (version 2.2.2; Applied Biosystems) from duplicate samples were used to determine the fold expression relative to controls.
(§2) The gene expression patterns of AtNHR1A and AtNHR1B were determined by quantitative RT-PCR (qRT-PCR) after treating wild-type Col-0 plants with ABA, PAMPs (Flg22 and LPS), host (P. syringae pv. maculicola) and nonhost (P. syringae pv. tabaci) bacterial pathogens. […]

Assay [2] has as its system AtNHR1B. The assay can be described thus: qRT-PCR of AtNHR1B expression in treated wild-type Col-0 plants. It is filed as in vivo, Arabidopsis. Particulars: Col-0, 12 hpt; ABA 10 μM, Flg22 20 μM. On the procedure:
as §1, §2
On the technique in general: In qPCR the cycle at which signal appears reflects the starting amount.

Assay [3] deals with stomata of Arabidopsis epidermal peels. Put plainly: Stomatal closure / aperture in epidermal peels of NHR1A lines. The class given is cell-based. To be noted: ABA 50 μM, flg22 20 μM. As for the experimental part:
FIG. 6A, FIG. 6B and FIG. 6C show ABA, PAMPs, host and nonhost bacterial pathogens induce AtNHR1A, AtNHR1B, and stomatal closure in an AtNHR1A-dependent manner. Histograms are depicted of AtNHR1A (FIG. 6A) and AtNHR1B (FIG. 6B) gene expression in Arabidopsis wild-type (Col-0) plants individually syringe-infiltrated with ABA (10 μM), Flg22 (20 μM), or LPS (100 ng), or flood-inoculated with the pathogens P. syringae pv. maculicola (Psm) and P. syringae pv. tabaci (Pst) at 1×10^4 cfu/mL. Bars indicate relative gene expression in comparison with the housekeeping gene UBQ5 and in relation to the 0 hr time-point. Different letters above bars indicate a statistically significant difference within a treatment (Student's t-test; p-value=0.05). Error bars represent the standard deviation of three biological replicates (three technical replicates for each biological replicate). Histograms are depicted quantifying stomatal aperture size from epidermal peels incubated with ABA (10 μM or 50 μM), Flg22 (20 μM), LPS (100 ng) and the nonhost pathogen Pst (1×10^6 cfu/mL), where aperture size was measured after 30 min for ABA, 1 hr for flg22 and 3 hrs for Pst (FIG. 6C). […]

Assay [4] has the same test system. Put plainly: Stomatal aperture in epidermal peels of Col-0 and AtGCN4 overexpressor lines. The class given is cell-based. Particulars: both wild-type Col-0 and AtGCN4 overexpressor lines, after ABA treatment. On the procedure:
A representative histogram is depicted of stomatal aperture in Arabidopsis plant epidermal peels from wild-type Col-0 and GCN4-overexpressing (AtGCN4-OE6 and AtGCN4-OE16) lines measured 4 hours after treatment with MES buffer, COR, ABA, or COR+ABA.
Upon detection of PAMPs, stomata rapidly closes to prevent entry of the pathogen into apoplast (Melotto et al., 2006; Lee et al., 2013). […] Epidermal peels of AtGCN4 overexpressing lines were used to investigate whether stomata reopen after treatment with MES buffer (stomata opening buffer; control) or the host pathogen P. syringae pv. tomato DC3000. In wild-type Col-0, stomata reopened 3 hpi, while in the AtGCN4 overexpressor lines (AtGCN4-OE6 and AtGCN4-OE16), stomata remained closed even 4 hpi with P. syringae pv. tomato DC3000. Stomatal aperture was measured after ABA and coronatine treatments in order to investigate stomatal function in AtGCN4 overexpressor lines. ABA treatment induces stomatal closure in plants. After ABA treatment, the stomatal aperture size was reduced due to closing in both wild-type Col-0 and the AtGCN4 overexpressor lines.

Assay [5] concerns AtNHR1A. Particulars: 4 hrs of 100 μM ABA, cited from earlier work.
Assay [6] has as its system AtNHR1B. Particulars: both mesophyll cells and guard cells, 4 hrs of 100 μM ABA; cited from earlier work.
Assay [7] relates to AtNHR1A. The assay can be described thus: GTPase activity of AtNHR1A (GTP hydrolysis, phosphate release). It is filed as biochemical, Arabidopsis. As for the experimental part: FIG. 12A, FIG. 12B and FIG. 12C show NHR1A has GTPase activity and interacts with JAZ9 in Arabidopsis. A representative histogram is depicted showing that nhr1a is less sensitive to JA than Col-0, where roots were measured 7 days after seeds of different Arabidopsis lines were grown in MS medium plates with or without 30 μM of MeJA (FIG. 12A). Data represents three independent experiments with at least 10 seedlings per line. Bars represent the mean±SD. Asterisks indicate statistical significance (Student's t-test; p-value <0.05). A representative scatter-plot and histogram are depicted showing that the GTPase activity of NHR1A is reduced by JAZ9 as measured by the rate of phosphate (Pi) release when NHR1A protein (1 μM) was pre-loaded with GTP (1 mM) and incubated without (FIG. 12B) or with 0.25-1 μM of JAZ9 (FIG. 12C). Data represents three independent experiments. Bars represent the mean±SE.
To further examine the role of AtNHR1A, GTPase activity of AtNHR1A was assessed using purified protein in a fluorescence-based assay (Willard et al., 2005). […] This finding was quantified by measuring the phosphate (Pi) release, using the ENZchek® phosphate assay kit (Invitrogen®), after incubating NHR1A with different concentrations of JAZ9. […]
GTP binding and hydrolysis by AtNHR1A protein was measured using GTP-BODIPY-FL in real-time fluorescence assays in the presence of absence of JAZ9 protein. […]

For assay [8], the target named is T1, COI1 (Coronatine Insensitive 1) (Arabidopsis, UniProt O04197 1-592, limits assumed).
T1 construct: Expressed in Arabidopsis seedlings in the FAST assay; construct not described
T1 sequence (looked up): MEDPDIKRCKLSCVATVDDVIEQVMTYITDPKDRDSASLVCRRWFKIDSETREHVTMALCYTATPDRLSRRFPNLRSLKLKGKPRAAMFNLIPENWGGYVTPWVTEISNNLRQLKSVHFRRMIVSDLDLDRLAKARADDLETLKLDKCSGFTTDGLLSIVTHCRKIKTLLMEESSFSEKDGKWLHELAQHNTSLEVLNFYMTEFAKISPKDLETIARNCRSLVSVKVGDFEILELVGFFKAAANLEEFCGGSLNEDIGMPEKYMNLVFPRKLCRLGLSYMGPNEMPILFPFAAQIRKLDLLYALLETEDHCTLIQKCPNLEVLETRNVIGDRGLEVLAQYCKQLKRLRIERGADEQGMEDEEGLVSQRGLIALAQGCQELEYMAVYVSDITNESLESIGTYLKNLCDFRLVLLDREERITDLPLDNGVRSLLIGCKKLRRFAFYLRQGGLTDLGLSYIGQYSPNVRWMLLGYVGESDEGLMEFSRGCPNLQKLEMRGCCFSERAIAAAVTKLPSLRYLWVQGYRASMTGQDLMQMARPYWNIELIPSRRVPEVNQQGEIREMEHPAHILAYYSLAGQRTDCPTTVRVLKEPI
Put plainly: FAST (fast agro-mediated seedling transformation) assay in Arabidopsis Col-0 and nhr1a seedlings. The source says:
Several JAZ proteins, such as JAZ1, JAZ2, JAZ3, JAZ6, JAZ9 and JAZ10, have been known to directly interact with COI1 in Arabidopsis (Chini et al., 2009; Melotto et al., 2008; Thines et al., 2007; Yan et al., 2009; Zhou et al., 2013). As shown above, NHR1A directly interacts with JAZ1, JAZ3, JAZ4, JAZ5, JAZ9 and JAZ12. Without being limited by theory, the present inventors hypothesize that the function of JAZ9 can be modified by binding NHR1A, and this may affect COI1-mediated signaling for stomatal closure. The fast agro-mediated seedling transformation (FAST) assay was used in Col-0 and nhr1a to investigate whether NHR1A was required for JAZ9-COI1 interaction.

Turning to `CC1=CC(=O)CC(C)(C)[C@@]1(O)/C=C/C(C)=C\C(=O)O` [ABA, abscisic acid], the AtNHR1A induction entry in assay [1] was “twofold”. Also, the AtNHR1B expression entry in assay [2] is given as “highly induced”. Further, the Stomatal response entry in assay [3] (Atnhr1a mutant) is given as “remained open”; in assay [3] (Col-0, NHR1A-OE and AtNHR1A-comp lines) it was “closed stomata”. Further, in assay [4], the Stomatal aperture size result is recorded as “reduced”. The “AtNHR1A transcripts vs water-treated control” value in assay [5] (Col-0 guard cells) is reported as “only a slight increase”. Further, in assay [5] (Col-0 mesophyll cells), the “AtNHR1A transcript level vs water-treated control” value is “approximately threefold”. For the same molecule, the “AtNHR1B transcripts vs water treatment” value in assay [6] was “decreased”.

B1: Jasmonate-Zim-Domain Protein 9 (JAZ9, At1g70700), full-length (other, Arabidopsis, UniProt Q8W4J8 1-267, looked up)
chain: MERDFLGLSDKQYLSNNVKHEVNDDAVEERGLSTKAAREWGKSKVFATSSFMPSSDFQEAKAFPGAYQWGSVSAANVFRRCQFGGAFQNATPLLLGGSVPLPTHPSLVPRVASSGSSPQLTIFYGGTISVFNDISPDKAQAIMLCAGNGLKGETGDSKPVREAERMYGKQIHNTAATSSSSATHTDNFSRCRDTPVAATNAMSMIESFNAAPRNMIPSVPQARKASLARFLEKRKERLMSAMPYKKMLLDLSTGESSGMNYSSTSPT
notes: GAL4 domain fusion in yeast two-hybrid, EYFP-half fusion in BiFC/FAST; the construct of the JAZ9 protein added to the GTPase assays is not described
Regarding B1, in assay [7] (0.75 μM and 1 μM of JAZ9, NHR1A 1 μM pre-loaded with GTP 1 mM), the “Reduction in phosphate release compared with AtNHR1A without JAZ9” value was determined as 20%. In assay [7] (in the presence of JAZ9), the “Rate of GTP hydrolysis of AtNHR1A” value is listed as “significantly decreased”. In assay [8], the binding result is given as “binds”.
